Experimental data reported in publication PMC12298007 (Pharmaceuticals, 2025).
Like-named read-outs stand apart in the source and are kept apart here.

Key:
PC-3 xenografts = tested on: PC-3 xenografts; set-up: method as in Mansi et al. [37]; conditions: 24 h p.i.; female nude mice; i.v. 10 pmol; n = 4; ref Mansi et al. [37]; cited from earlier work
[1] = Biodistribution, CHO-K1-GRPR + CHO-K1-PSMA dual xenograft mice; conditions: female, NOD SCID, mouse, intravenous, total radioactivity; for tissue uptake at 24.2 h / tissue uptake at 25.2 h: single tracer; for tissue uptake at 24.2 h / tissue uptake at 25.8 h / tissue uptake at 25.2 h / tissue uptake at 17.6 h: dual xenograft; for tissue uptake at 24.2 h: 24.2 h p.i.; for tissue uptake at 25.8 h: 1 nmol, Mouse #8, 25.8 h p.i., 1.00 nmol; for tissue uptake at 25.8 h / tissue uptake at 17.6 h: dual tracer; for tissue uptake at 25.2 h: 1.08 nmol, Mouse #6, 25.2 h p.i.; for tissue uptake at 17.6 h: 2.69 nmol, Mouse #9, 17.6 h p.i.; for tissue uptake: CHO-K1-GRPR xenograft tumor, Uptake in CHO-K1-GRPR xenografts, range
Method: Six-to-eight-week-old female immunodeficient mice (NOD SCID) were obtained from the Core facility laboratory animal breeding and husbandry of the Medical University of Vienna, Himberg, Austria. Animals were kept in individually ventilated cages with 12 h light–dark cycle. All experiments were approved by the Federal Ministry of Education, Science and Research, Republic of Austria (2020-0.253.820 and BMBWF-66.009/0122-V/3b/2019) and performed according to the guidelines from the Federation of the European Laboratory Animal Science Associations (FELASA). After an acclimatization period of two weeks, animals were injected with 3 × 10^6 CHO-K1-GRPR cells in the right flank and 3 × 10^6 CHO-K1-PSMA cells in the left flank (3 × 10^6 in 100 µL serum-free medium each). It should be noted that approximately the same passage (±1 passage number) was used for inoculation for both cell lines to ensure similar cell viability, target incidence, and density in vivo. Tracer uptake (and thus target expression) was confirmed three days prior to inoculation in cell uptake experiments. […] Tumor growth and body weight were monitored daily. Animals were subjected to imaging after 1.5–2 weeks of tumor growth (final tumor volume of 100–800 mm^3). Endpoints were defined as rapid weight loss up to 20% body weight, tumor volume ≥ 1000 mm^3, tumor volume < 1000 mm^3 with signs of necrosis (ulcerated surface), as well as clearly detectable apathy and pain upon touch.
Animals used in imaging studies were sacrificed at different time points post injectionem (p.i.) after the last imaging time point by cervical dislocation under isofluorane anesthesia. Selected organs were removed and weighed, and organ activities were measured in a γ-counter. For animals in which a dual-tracer cocktail was administered, the organs were measured several times over a period of 2–3 weeks to use these datasets in specific calculation methods (Section 3.6 in the SI) to obtain the correct activity for each individual radionuclide at the start of the measurement series.
[99mTc]Tc-PSMA-I&S or both (dual tracer cocktail) were injected into the tail vein of tumor
xenograft-bearing female NOD SCID mice. They were sacrificed by cervical dislocation under
isofluoran anesthesia at different time points post injectionem (p.i.) after the last imaging time
point. Selected organs were removed, weighed and organ activities measured in a γ-counter.

PC-3 xenograft = assay: Biodistribution, PC-3 xenograft mice; format: in vivo, NOD SCID mice; conditions: single tracer, PC-3 xenograft
Text: (§1) Tumor growth and body weight were monitored daily. […]
(§2) 3.6.1 Biodistribution studies
(§3) xenograft-bearing female NOD SCID mice. […]

[2] = Biodistribution, PC-3 xenograft mice; format: in vivo, NOD SCID mice; conditions: female, NOD SCID, intravenous, total radioactivity; for tissue uptake at 7.3 h: Mouse #2, 7.3 h p.i., 1.43 nmol; for tissue uptake at 7.3 h / tissue uptake at 4 h / tissue uptake at 25.1 h: single tracer, PC-3 xenograft; for tissue uptake at 4 h: Mouse #3, 4 h p.i., 1.49 nmol; for tissue uptake at 25.1 h: Mouse #1, 25.1 h p.i., 1.34 nmol
Text: as §1, §2, §3

[3] = CHO-K1-GRPR tumor, Biodistribution: CHO-K1-GRPR Tumor
[4] = CHO-K1-PSMA tumor, Biodistribution: CHO-K1-PSMA Tumor
[5] = adrenal, Biodistribution: Adrenal
[6] = kidney, Biodistribution: Kidney
[7] = muscle, Biodistribution: Muscle
[8] = pancreas, Biodistribution: Pancreas
[9] = spleen, Biodistribution: Spleen
[10] = stomach (empty), Biodistribution: Stomach (empty)
[11] = Mouse #1, 25.1 h p.i., 1.34 nmol
[12] = PC-3 tumor, read-out: Biodistribution: PC-3 Tumor
[13] = bone, read-out: Biodistribution: Bone
[14] = colon (empty), read-out: Biodistribution: Colon (empty)
[15] = intestine (empty), read-out: Biodistribution: Intestine (empty)
[16] = liver, read-out: Biodistribution: Liver
[17] = muscle, read-out: Biodistribution: Muscle
[18] = spleen, read-out: Biodistribution: Spleen
[19] = stomach (empty), read-out: Biodistribution: Stomach (empty)

SMILES: CC(C)C[C@H](NC(=O)C[C@H](O)[C@H](CC(C)C)NC(=O)[C@H](Cc1c[nH]cn1)NC(=O)CNC(=O)[C@@H](NC(=O)[C@H](C)NC(=O)[C@H](Cc1c[nH]c2ccccc12)NC(=O)[C@H](CCC(N)=O)NC(=O)[C@@H](Cc1ccccc1)NC(=O)CN1CCC(NC(=O)CN2CCN(CC(=O)O)CCN(CC(=O)O)CCN(CC(=O)O)CC2)CC1)C(C)C)C(N)=O [[^111In]In-RM2, metal not drawn]
- Uptake in PC-3 xenografts (PC-3 xenografts): 6.84 ± 1.02 % ID/g
- tissue uptake at 24.2 h ([1]; CHO-K1-GRPR tumor, 0.37 nmol, Biodistribution: CHO-K1-GRPR Tumor, Mouse #5, 0.37 nmol): 0.51 %ID/g
- tissue uptake at 24.2 h ([1]; CHO-K1-GRPR tumor, 0.58 nmol, Biodistribution: CHO-K1-GRPR Tumor, Mouse #4, 0.58 nmol): 0.28 %ID/g
- tissue uptake at 25.8 h [1, 3]: 0.38 %ID/g
- tissue uptake at 25.2 h [1, 3]: 0.33 %ID/g
- tissue uptake at 24.2 h ([1]; CHO-K1-GRPR tumor, 1.41 nmol, Biodistribution: CHO-K1-GRPR Tumor, Mouse #7, 1.41 nmol): 0.06 %ID/g
- tissue uptake at 17.6 h [1, 3]: 0.26 %ID/g
- tissue uptake ([1]; dual-tracer mice #8 and #9): 0.26 to 0.38 %ID/g
- tissue uptake ([1]; single-tracer mice #4–#7): 0.06 to 0.51 %ID/g
- tissue uptake at 24.2 h ([1]; CHO-K1-PSMA tumor, 0.37 nmol, Biodistribution: CHO-K1-PSMA Tumor, Mouse #5, 0.37 nmol): 0.08 %ID/g
- tissue uptake at 25.8 h [1, 4]: 0.08 %ID/g
- tissue uptake at 25.2 h [1, 4]: 0.09 %ID/g
- tissue uptake at 24.2 h ([1]; CHO-K1-PSMA tumor, 1.41 nmol, Biodistribution: CHO-K1-PSMA Tumor, Mouse #7, 1.41 nmol): 0.08 %ID/g
- tissue uptake at 17.6 h [1, 4]: 0.09 %ID/g
- tissue uptake at 24.2 h ([1]; adrenal, 0.37 nmol, Biodistribution: Adrenal, Mouse #5, 0.37 nmol): 0.33 %ID/g
- tissue uptake at 24.2 h ([1]; adrenal, 0.58 nmol, Biodistribution: Adrenal, Mouse #4, 0.58 nmol): 0.12 %ID/g
- tissue uptake at 25.2 h [1, 5]: 0.16 %ID/g
- tissue uptake at 24.2 h ([1]; adrenal, 1.41 nmol, Biodistribution: Adrenal, Mouse #7, 1.41 nmol): 0.08 %ID/g
- tissue uptake at 17.6 h [1, 5]: 0.12 %ID/g
- tissue uptake at 25.8 h ([1]; blood, Biodistribution: Blood): 0.02 %ID/g
- tissue uptake at 25.2 h ([1]; blood, Biodistribution: Blood): 0.01 %ID/g
- tissue uptake at 24.2 h ([1]; blood, 1.41 nmol, Biodistribution: Blood, Mouse #7, 1.41 nmol): 0.01 %ID/g
- tissue uptake at 17.6 h ([1]; blood, Biodistribution: Blood): 0.02 %ID/g
- tissue uptake at 24.2 h ([1]; bone, 0.37 nmol, Biodistribution: Bone, Mouse #5, 0.37 nmol): 0.04 %ID/g
- tissue uptake at 24.2 h ([1]; bone, 0.58 nmol, Biodistribution: Bone, Mouse #4, 0.58 nmol): 0.04 %ID/g
- tissue uptake at 25.8 h ([1]; bone, Biodistribution: Bone): 0.06 %ID/g
- tissue uptake at 25.2 h ([1]; bone, Biodistribution: Bone): 0.06 %ID/g
- tissue uptake at 24.2 h ([1]; bone, 1.41 nmol, Biodistribution: Bone, Mouse #7, 1.41 nmol): 0.04 %ID/g
- tissue uptake at 24.2 h ([1]; colon (empty), 0.37 nmol, Biodistribution: Colon (empty), Mouse #5, 0.37 nmol): 0.08 %ID/g
- tissue uptake at 24.2 h ([1]; colon (empty), 0.58 nmol, Biodistribution: Colon (empty), Mouse #4, 0.58 nmol): 0.04 %ID/g
- tissue uptake at 25.8 h ([1]; colon (empty), Biodistribution: Colon (empty)): 0.04 %ID/g
- tissue uptake at 24.2 h ([1]; heart, 0.58 nmol, Biodistribution: Heart, Mouse #4, 0.58 nmol): 0.02 %ID/g
- tissue uptake at 24.2 h ([1]; heart, 1.41 nmol, Biodistribution: Heart, Mouse #7, 1.41 nmol): 0.02 %ID/g
- tissue uptake at 24.2 h ([1]; intestine (empty), 0.37 nmol, Biodistribution: Intestine (empty), Mouse #5, 0.37 nmol): 0.06 %ID/g
- tissue uptake at 24.2 h ([1]; intestine (empty), 1.41 nmol, Biodistribution: Intestine (empty), Mouse #7, 1.41 nmol): 0.04 %ID/g
- tissue uptake at 17.6 h ([1]; intestine (empty), Biodistribution: Intestine (empty)): 0.04 %ID/g
- tissue uptake at 24.2 h ([1]; kidney, 0.37 nmol, Biodistribution: Kidney, Mouse #5, 0.37 nmol): 1.42 %ID/g
- tissue uptake at 24.2 h ([1]; kidney, 0.58 nmol, Biodistribution: Kidney, Mouse #4, 0.58 nmol): 1.14 %ID/g
- tissue uptake at 25.8 h [1, 6]: 1.07 %ID/g
- tissue uptake at 25.2 h [1, 6]: 1.69 %ID/g
- tissue uptake at 24.2 h ([1]; kidney, 1.41 nmol, Biodistribution: Kidney, Mouse #7, 1.41 nmol): 1.34 %ID/g
- tissue uptake at 17.6 h [1, 6]: 1.09 %ID/g
- tissue uptake at 24.2 h ([1]; liver, 0.37 nmol, Biodistribution: Liver, Mouse #5, 0.37 nmol): 0.13 %ID/g
- tissue uptake at 24.2 h ([1]; liver, 0.58 nmol, Biodistribution: Liver, Mouse #4, 0.58 nmol): 0.1 %ID/g
- tissue uptake at 25.8 h ([1]; liver, Biodistribution: Liver): 0.28 %ID/g
- tissue uptake at 25.2 h ([1]; liver, Biodistribution: Liver): 0.2 %ID/g
- tissue uptake at 24.2 h ([1]; liver, 1.41 nmol, Biodistribution: Liver, Mouse #7, 1.41 nmol): 0.17 %ID/g
- tissue uptake at 17.6 h ([1]; liver, Biodistribution: Liver): 0.13 %ID/g
- tissue uptake at 25.8 h ([1]; lung, Biodistribution: Lung): 0.04 %ID/g
- tissue uptake at 24.2 h ([1]; lung, 1.41 nmol, Biodistribution: Lung, Mouse #7, 1.41 nmol): 0.04 %ID/g
- tissue uptake at 24.2 h ([1]; muscle, 0.37 nmol, Biodistribution: Muscle, Mouse #5, 0.37 nmol): 0.01 %ID/g
- tissue uptake at 24.2 h ([1]; muscle, 0.58 nmol, Biodistribution: Muscle, Mouse #4, 0.58 nmol): 0.01 %ID/g
- tissue uptake at 25.8 h [1, 7]: 0.01 %ID/g
- tissue uptake at 25.2 h [1, 7]: 0.02 %ID/g
- tissue uptake at 24.2 h ([1]; muscle, 1.41 nmol, Biodistribution: Muscle, Mouse #7, 1.41 nmol): 0.01 %ID/g
- tissue uptake at 17.6 h [1, 7]: 0.01 %ID/g
- tissue uptake at 24.2 h ([1]; pancreas, 0.37 nmol, Biodistribution: Pancreas, Mouse #5, 0.37 nmol): 0.1 %ID/g
- tissue uptake at 24.2 h ([1]; pancreas, 0.58 nmol, Biodistribution: Pancreas, Mouse #4, 0.58 nmol): 0.07 %ID/g
- tissue uptake at 25.8 h [1, 8]: 0.07 %ID/g
- tissue uptake at 25.2 h [1, 8]: 0.06 %ID/g
- tissue uptake at 24.2 h ([1]; pancreas, 1.41 nmol, Biodistribution: Pancreas, Mouse #7, 1.41 nmol): 0.04 %ID/g
- tissue uptake at 17.6 h [1, 8]: 0.04 %ID/g
- tissue uptake at 24.2 h ([1]; spleen, 0.37 nmol, Biodistribution: Spleen, Mouse #5, 0.37 nmol): 0.08 %ID/g
- tissue uptake at 24.2 h ([1]; spleen, 0.58 nmol, Biodistribution: Spleen, Mouse #4, 0.58 nmol): 0.07 %ID/g
- tissue uptake at 25.8 h [1, 9]: 0.25 %ID/g
- tissue uptake at 25.2 h [1, 9]: 0.13 %ID/g
- tissue uptake at 24.2 h ([1]; spleen, 1.41 nmol, Biodistribution: Spleen, Mouse #7, 1.41 nmol): 0.08 %ID/g
- tissue uptake at 17.6 h [1, 9]: 0.1 %ID/g
- tissue uptake at 24.2 h ([1]; stomach (empty), 0.37 nmol, Biodistribution: Stomach (empty), Mouse #5, 0.37 nmol): 0.04 %ID/g
- tissue uptake at 25.8 h [1, 10]: 0.04 %ID/g
- tissue uptake at 25.2 h [1, 10]: 0.04 %ID/g
- Biodistribution: Kidney (PC-3 xenograft; [11]): 2.17 % ID/g
- Biodistribution: PC-3 Tumor (PC-3 xenograft; [11]): 2.20 % ID/g
- Biodistribution: Heart (PC-3 xenograft; Mouse #3, 4 h p.i., 1.49 nmol): 0.02 % ID/g
- Biodistribution: Kidney (PC-3 xenograft; Mouse #3, 4 h p.i., 1.49 nmol): 2.20 % ID/g
- tissue uptake at 7.3 h [2, 12]: 1.36 %ID/g
- tissue uptake at 4 h [2, 12]: 2.75 %ID/g
- tissue uptake at 4 h ([2]; adrenal, read-out: Biodistribution: Adrenal): 0.13 %ID/g
- tissue uptake at 25.1 h [2, 13]: 0.07 %ID/g
- tissue uptake at 4 h [2, 13]: 0.04 %ID/g
- tissue uptake at 25.1 h [2, 14]: 0.04 %ID/g
- tissue uptake at 7.3 h [2, 14]: 0.04 %ID/g
- tissue uptake at 7.3 h ([2]; heart, read-out: Biodistribution: Heart): 0.02 %ID/g
- tissue uptake at 25.1 h [2, 15]: 0.08 %ID/g
- tissue uptake at 4 h [2, 15]: 0.08 %ID/g
- tissue uptake at 7.3 h ([2]; kidney, read-out: Biodistribution: Kidney): 1.29 %ID/g
- tissue uptake at 25.1 h [2, 16]: 0.17 %ID/g
- tissue uptake at 7.3 h [2, 16]: 0.12 %ID/g
- tissue uptake at 4 h [2, 16]: 0.22 %ID/g
- tissue uptake ([2]; mouse, PC-3 xenograft tumor, 4-25.1 h p.i., range over mice, read-out: Uptake in PC-3 xenografts): 1.36 to 2.75 %ID/g
- tissue uptake at 25.1 h [2, 17]: 0.01 %ID/g
- tissue uptake at 7.3 h [2, 17]: 0.01 %ID/g
- tissue uptake at 4 h [2, 17]: 0.01 %ID/g
- tissue uptake at 25.1 h ([2]; pancreas, read-out: Biodistribution: Pancreas): 0.06 %ID/g
- tissue uptake at 25.1 h [2, 18]: 0.16 %ID/g
- tissue uptake at 7.3 h [2, 18]: 0.13 %ID/g
- tissue uptake at 4 h [2, 18]: 0.1 %ID/g
- tissue uptake at 7.3 h [2, 19]: 0.02 %ID/g
- tissue uptake at 4 h [2, 19]: 0.09 %ID/g
